The text below walks through data of patent US20170049908A1 (priority 2015, published 2017).

The subject of data set [1] is Ramos cells. Kind of data set: cells. Conditions: Homo sapiens, 72 h, read-out: EC50 in picoM, Ramos.
Data set [2] deals with SU-DHL-8 cells. Kind of data set: cells. To be noted: Homo sapiens, SU-DHL-8, 72 h, read-out: EC50 in picoM, SUDHL8.
Data set [3] concerns Ramos cells. Conditions: for EC50: read-out: EC50 in picoM, Ramos, Table 3, agents and agent-linker intermediates, 3 days incubation.
The test system of data set [4] is SU-DHL-8 cells. To be noted: for EC50: read-out: EC50 in picoM, SUDHL8, Table 3, agents and agent-linker intermediates, 3 days incubation.
Data set [5] deals with HL60, U937, MV411, Hut78, H929, and RAMOS. Kind of data set: Cytotoxic activity on six human blood cancer cell types with and without ATRA (overall statements). The class given is cell-based. To be noted: all cell lines tested except RAMOS. The method, then:
Agent loading (e.g., “n” of Formula (I)) was determined to be about 4.
In this study and as determined by antibody cell staining, and with the exception of HL-60 cells, all cells expressed various levels of cell surface CD38 prior to ATRA addition.

Read-outs that look alike come from different tables or passages of the source.

Broadly, the EC50 is the concentration at which the effect is half-maximal. For the compound `C[C@]12CC[C@H](OC(=O)NCCCNCCCN)C[C@H]1CC[C@@H]1[C@@H]2CC[C@]2(C)[C@H](c3ccc(=O)oc3)CC[C@]12O` [CEN-373, 5-{(1S,2S,5S,7R,10R,11S,14S,15R)-5-[3-(3-Aminopropylamino)propylaminocarbonyloxy]-11-hydroxy-2,15-dimethyltetracyclo[8.7.0.02, 7.011, 15]heptadec-14-yl}-2-pyranone], the 50% effective concentration (EC50) was found to be 4 nM in data set [1] and 5.9 nM in data set [2].
For the compound `C[C@]12CC[C@H](O)C[C@H]1CC[C@@H]1[C@@H]2CC[C@]2(C)[C@@H](c3ccc(=O)oc3)CC[C@]12O` [Bufalin, reference compound], in data set [3], the “cytotoxic effect in Ramos cells, in words” value is listed as “modestly active”. The “cytotoxic effect in SU-DHL-8 cells, in words” value in data set [4] is listed as “modestly active”. Besides, the EC50 in data set [1] turned out to be 7.3 nM; in data set [2], 16 nM.
On to `C[C@]12CC[C@H](O)C[C@H]1CC[C@@H]1[C@@H]2CC[C@]2(C)[C@@H](C3=CC(=O)OC3)CC[C@]12O` [Digitoxigenin, reference compound], for which the half-maximal effective concentration (EC50) in data set [1] and in data set [2] was above 50 nM in each case.
With `CN(CCCN)CCCNC(=O)O[C@H]1CC[C@@]2(C)[C@H](CC[C@@H]3[C@@H]2CC[C@]2(C)[C@H](c4ccc(=O)oc4)CC[C@]32O)C1` [CEN-372, 5-[(1S,2S,5S,7R,10R,11S,14S,15R)-5-{3-[N-Methyl(3-aminopropyl)amino]propylaminocarbonyloxy}-11-hydroxy-2,15-dimethyltetracyclo[8.7.0.02, 7.011, 15]heptadec-14-yl]-2-pyranone], the concentration giving a half-maximal response (EC50) in data set [1] turned out to be 3.6 nM; in data set [2], 4.4 nM.
Take `C[C@]1(OC(=O)NCCCN2CCN(CCCN)CC2)CC[C@@]2(C)[C@H](CC[C@@H]3[C@@H]2CC[C@]2(C)[C@](C)(c4ccc(=O)oc4)CC[C@]32O)C1` [CEN-371, 4-(3-{(1S,2S,5S,7R,10R,11S,14S,15R)-11-Hydroxy-2,5,14,15-tetramethyl-14-(6-oxo-3-pyranyl)tetracyclo[8 0.7.0.02, 7.011, 15]heptadec-5-yloxycarbonylamino}propyl)-1-(3-aminopropyl)piperazine]: in data set [3] (FIG. 4 legend, unconjugated antibody, linker-agent and agents), the “cytotoxic effect in Ramos cells, in words” value is listed as “modestly active”. Also, the 50% effective concentration (EC50) in data set [3] worked out at 7.81 nM; in data set [4], 11 nM. Besides, the “cytotoxic effect in SU-DHL-8 cells, in words” value in data set [4] (FIG. 2 and FIG. 3 legends, unconjugated antibody, linker-agent and agents) is given as “modestly active”.
For `C[C@]12CC[C@H](OC3OC[C@H](N)[C@@H](O)[C@@H]3O)C=C1CC[C@@H]1[C@@H]2CC[C@]2(C)[C@@H](c3ccc(=O)oc3)CC[C@]12O` (stereo partly drawn) [CEN09-106, Scillarenin-4-amino-4-deoxy-L-xylopyranoside], the 50% effective concentration (EC50) in data set [3] was found to be 1.9 nM; in data set [4] it was 2.07 nM.
As to `CC1=C(/C=C/C(C)=C/C=C/C(C)=C/C(=O)O)C(C)(C)CCC1` [ATRA, all-trans-retinoic acid], the “effect of ATRA alone on cell growth” value in data set [5] is recorded as “slowed cell growth”.
As for `C[C@]1(OC(=O)NCCCN2CCN(CCCN)CC2)CC[C@@]2(C)[C@H](CC[C@@H]3[C@@H]2CC[C@]2(C)[C@@](C)(C4=CC(=O)OC4)CC[C@]32O)C1` [CEN-381, 4-(3-{(1S,2S,5S,7R,10R,11S,14R,15R)-11-Hydroxy-2,5,14,15-tetramethyl-14-(5-oxo-2H-fur-3-yl)tetracyclo[8.7.0.02, 7.011, 15]heptadec-5-yloxycarbonylamino}propyl)-1-(3-aminopropyl)piperazine], the 50% effective concentration (EC50) in data set [1] and in data set [2] was above 50 nM each time.
